Here are results for seven compounds from BindingDB's records for PubMed 38330869 (National Institute of Pharmaceutical Education and …).

The nature of this experiment: Inhibition of wild type influenza A virus H5N1 (A/chicken/Hubei/327/2004) matrix protein 2 transfected in yeast assessed as yeast growth restoration measured after 46 to 48 hrs.
One may read the EC50 as the midpoint of the concentration-response curve. In the case of `Cc1cc(CNS(=O)(=O)c2ccc([N+](=O)[O-])cc2)c(C)o1`, the EC50 worked out at 1.71 µM.
The value for `Cc1cc(CNS(=O)(=O)c2ccc(Cl)cc2)c(C)o1` was 3.07 µM; that for `Cc1cc(CNS(=O)(=O)c2ccc([N+](=O)[O-])cc2)c(C)s1` was 2.21 µM; that for `Cc1cc(CNS(=O)(=O)c2ccc(C#N)cc2)c(C)s1` was 1.4 µM.
For `Cc1cc(CNS(=O)(=O)c2ccc(Cl)cc2)c(C)s1`, the 50% effective concentration (EC50) was 1.08 µM.
The value for `Cc1cc(CNS(=O)(=O)c2ccc(Br)cc2)c(C)s1` was 1.58 µM.
The value for `O=[N+]([O-])c1ccc(S(=O)(=O)NCc2csc3ccccc23)cc1` was 3.44 µM.
